In patent US20260364184A1, “COMPOUND BASED ON OXOISOINDOLINYL-SUBSTITUTED TETRAHYDROPYRIMIDINE-DIONE AND USE THEREOF” (GLUETACS THERAPEUTICS (SHANGHAI) CO., LTD., priority 2023, published 2026):
Read-outs that look alike come from different tables or passages of the source.

Test system: Human myeloid monocytic leukemia cell line (MV-4-11)
Experiment: Inhibition of MV-4-11 cell proliferation (CellTiter luminescent viability)
Format: cell-based
Conditions: Homo sapiens, MV4-11; for inhibition at 0.01 µM: read-out: Inhibition Rate at 10 nM (%); for inhibition at 0.5 µM: read-out: Inhibition Rate at 500 nM (%)
Method: The tumor cells used herein were cultured in a cell culture medium listed in table 3 at 37 °C in an incubator with 5% CO2. Prior to experimentation, all cell lines used were correctly identified by STR profiling, and tested negative for mycoplasma contamination using a mycoplasma detection kit through routine screenings.
The IC50 values of the compounds of the present disclosure (including the compounds in Table 1, Table 2, and Examples 1-468) were determined using the CellTiter-Meiluncell Luminescent Cell Viability Assay Kit from Dalian Meilun Biotech Co., Ltd. The detailed procedure is as follows: Tumor cells were seeded in 96-well cell culture plates at the densities specified in Table 4. On the following day, the test compounds of the present disclosure were subjected to serial dilution. The dilution can be performed according to one of the following two methods: • (1) The first dilution method: The test compounds of the present disclosure (including the compounds in Table 1, Table 2, and Examples 1-468) were subjected to 5-fold serial dilutions starting from a highest concentration of 2000 μM, resulting in a total of 9 concentrations from high to low (2000, 400, 80, 16, 3.2, 0.64, 0.128, 0.0256, 0.00512 μM). Subsequently, 0.5 μL of the test compound dilution was transferred into the 96-well plate containing the cells, with each well containing 100 μL of cell culture medium. […] Into the 96-well plate, the diluted test compounds and corresponding detection reagents were added, resulting in final test compound concentrations of 500 nM and 10 nM, respectively. The experimental procedure is described below using the diluted 2 μM test compound as an example.
0.5 μL of the aforementioned diluted compound of the present disclosure (including the compounds in Table 1, Table 2, and Examples 1-468) was added to the seeded cells in 100 μL of medium, yielding a final test compound concentration of 10 nM. After the cells were treated with the compounds of the present disclosure for a specified period, the cell viability assay reagent was added to the culture medium according to the kit's instructions to determine cell viability. […] All controls were treated using the same procedure as the compounds of the present disclosure. The growth inhibition curves for the compounds of the present disclosure were plotted using Prism GraphPad software, and the IC50 values were calculated therefrom.

[1] = Table IG2, FAK inhibitor-based, MV-4-11, 10 nM, 96 hours
[2] = Table IG2, FAK inhibitor-based, MV-4-11, 500 nM, 96 hours
[3] = Table IL2, BCR-ABL inhibitor-based, MV-4-11, 10 nM, 96 hours
[4] = Table IL2, BCR-ABL inhibitor-based, MV-4-11, 500 nM, 96 hours
[5] = Table IB2, ALK inhibitor-based, MV-4-11, 10 nM, 96 hours
[6] = Table IB2, ALK inhibitor-based, MV-4-11, 500 nM, 96 hours

Work on CC(C)(O)c1cc2nn(C3CCN(Cc4ccc5c(c4)CN(N4CCC(=O)NC4=O)C5=O)CC3)cc2cc1NC(=O)c1cccc(C(F)(F)F)n1 [GT-05746, N-(2-(1-((2-(2,4-dioxotetrahydropyrimidin-1(2H)-yl)-1-oxoisoindolin-5-yl)methyl)piperidin-4-yl)-6-(2-hydroxypropan-2-yl)-2H-indazol-5-yl)-6-(trifluoromethyl) picolinamide] yielded an inhibition at 0.01 µM (Table IA3, IRAK4 inhibitor-based, MV-4-11, 10 nM, 96 hours) of 10 to 20% and an inhibition at 0.5 µM (Table IA3, IRAK4 inhibitor-based, MV-4-11, 500 nM, 96 hours) of 60 to 80%.
CN(c1nccnc1CNc1nc(Nc2ccc(N3CCN(Cc4ccc5c(c4)CN(N4CCC(=O)NC4=O)C5=O)CC3)cc2)ncc1C(F)(F)F)S(C)(=O)=O [GT-07504, N-(3-(((2-((4-(4-((2-(2,4-dioxotetrahydropyrimidin-1(2H)-yl)-1-oxoisoindolin-5-yl)methyl)piperazin-1-yl)phenyl)amino)-5-(trifluoromethyl)pyrimidin-4-yl)amino)methyl)pyrazin-2-yl)-N-methylmethanesulfonamide] showed an inhibition at 0.01 µM [1] of -5 to 0% and an inhibition at 0.5 µM [2] of 80 to 100%.
With CN(c1nccnc1CNc1nc(Nc2ccc(N3CCC(N4CCN(Cc5ccc6c(c5)CN(N5CCC(=O)NC5=O)C6=O)CC4)CC3)cc2)ncc1C(F)(F)F)S(C)(=O)=O [GT-08138, N-(3-(((2-((4-(4-(4-((2-(2,4-dioxotetrahydropyrimidin-1(2H)-yl)-1-oxoisoindolin-5-yl)methyl)piperazin-1-yl)piperidin-1-yl)phenyl)amino)-5-(trifluoromethyl)pyrimidin-4-yl)amino)methyl)pyrazin-2-yl)-N-methylmethanesulfonamide] the inhibition at 0.01 µM [1] was 20 to 30% and the inhibition at 0.5 µM [2] was 80 to 100%.
CN(Cc1ccc2c(c1)CN(N1CCC(=O)NC1=O)C2=O)C1CCN(c2ccc(Nc3ncc(C(F)(F)F)c(NCc4cccc(N(C)S(C)(=O)=O)c4)n3)cc2)CC1 [GT-08142, N-(3-(((2-((4-(4-(((2-(2,4-dioxotetrahydropyrimidin-1(2H)-yl)-1-oxoisoindolin-5-yl)methyl)(methyl)amino)piperidin-1-yl)phenyl)amino)-5-(trifluoromethyl)pyrimidin-4-yl)amino)methyl)phenyl)-N-methylmethanesulfonamide] showed an inhibition at 0.01 µM [1] of 40 to 50% and an inhibition at 0.5 µM [2] of 80 to 100%.
CN(c1cccc(CNc2nc(Nc3ccc(N4CCC(N5CCN(Cc6ccc7c(c6)CN(N6CCC(=O)NC6=O)C7=O)CC5)CC4)cc3)ncc2C(F)(F)F)c1)S(C)(=O)=O [GT-08144, N-(3-(((2-((4-(4-(4-((2-(2,4-dioxotetrahydropyrimidin-1(2H)-yl)-1-oxoisoindolin-5-yl)methyl)piperazin-1-yl)piperidin-1-yl)phenyl)amino)-5-(trifluoromethyl)pyrimidin-4-yl)amino)methyl)phenyl)-N-methylmethanesulfonamide] gave an inhibition at 0.01 µM [1] of 30 to 40% and an inhibition at 0.5 µM [2] of 80 to 100%.
Cc1ccc(C(=O)Nc2ccc(CN3CCN(Cc4ccc5c(c4)C(=O)N(N4CCC(=O)NC4=O)C5=O)CC3)c(C(F)(F)F)c2)cc1C#Cc1cnc2cccnn12 [GT-08217, N-(4-((4-((2-(2,4-dioxotetrahydropyrimidin-1(2H)-yl)-1,3-dioxoisoindolin-5-yl)methyl)piperazin-1-yl)methyl)-3-(trifluoromethyl)phenyl)-3-(imidazo[1,2-b]pyridazin-3-ylethynyl)-4-methylbenzamide] gave an inhibition at 0.01 µM [3] of 10 to 15% and an inhibition at 0.5 µM [4] of 80 to 100%.
Cc1ccc(C(=O)Nc2ccc(N3CCN(Cc4ccc5c(c4)CN(N4CCC(=O)NC4=O)C5=O)CC3)c(C(F)(F)F)c2)cc1C#Cc1cnc2cccnn12 [GT-08218, N-(4-(4-((2-(2,4-dioxotetrahydropyrimidin-1(2H)-yl)-1-oxoisoindolin-5-yl)methyl)piperazin-1-yl)-3-(trifluoromethyl)phenyl)-3-(imidazo[1,2-b]pyridazin-3-ylethynyl)-4-methylbenzamide] showed an inhibition at 0.01 µM [3] of 5 to 10% and an inhibition at 0.5 µM [4] of 80 to 100%.
For Cc1ccc(C(=O)Nc2ccc(N3CCC(N(C)Cc4ccc5c(c4)C(=O)N(N4CCC(=O)NC4=O)C5=O)CC3)c(C(F)(F)F)c2)cc1C#Cc1cnc2cccnn12 [GT-08221, N-(4-(4-(((2-(2,4-dioxotetrahydropyrimidin-1(2H)-yl)-1,3-dioxoisoindolin-5-yl)methyl)(methyl)amino)piperidin-1-yl)-3-(trifluoromethyl)phenyl)-3-(imidazo[1,2-b]pyridazin-3-ylethynyl)-4-methylbenzamide], the inhibition at 0.01 µM [3] was -5 to 0% and the inhibition at 0.5 µM [4] was 50 to 60%.
Compound COc1cc(N2CCC(N3CCN(CC4CCN(c5ccc6c(c5)C(=O)N(N5CCC(=O)NC5=O)C6=O)CC4)CC3)CC2)ccc1Nc1ncc(Cl)c(Nc2ccccc2P(C)(C)=O)n1 [GT-08251, 5-(4-((4-(1-(4-((5-chloro-4-((2-(dimethylphosphoryl)phenyl)amino)pyrimidin-2-yl)amino)-3-methoxyphenyl)piperidin-4-yl)piperazin-1-yl)methyl)piperidin-1-yl)-2-(2,4-dioxotetrahydropyrimidin-1(2H)-yl)isoindoline-1,3-dione] has an inhibition at 0.01 µM [5] of 30 to 45% and an inhibition at 0.5 µM [6] of 60 to 80%.
COc1cc(N2CCC(N(C)CC3CCN(c4ccc5c(c4)C(=O)N(N4CCC(=O)NC4=O)C5=O)CC3)CC2)ccc1Nc1ncc(Cl)c(Nc2ccccc2P(C)(C)=O)n1 [GT-08253, 5-(4-(((1-(4-((5-chloro-4-((2-(dimethylphosphoryl)phenyl)amino)pyrimidin-2-yl)amino)-3-methoxyphenyl)piperidin-4-yl)(methyl)amino)methyl)piperidin-1-yl)-2-(2,4-dioxotetrahydropyrimidin-1(2H)-yl)isoindoline-1,3-dione] showed an inhibition at 0.01 µM [5] of 15 to 20% and an inhibition at 0.5 µM [6] of 45 to 55%.
In the case of COc1cc(N2CCC(N(C)CC3CCN(c4cccc5c4C(=O)N(N4CCC(=O)NC4=O)C5=O)CC3)CC2)ccc1Nc1ncc(Cl)c(Nc2ccccc2P(C)(C)=O)n1 [GT-08254, 4-(4-(((1-(4-((5-chloro-4-((2-(dimethylphosphoryl)phenyl)amino)pyrimidin-2-yl)amino)-3-methoxyphenyl)piperidin-4-yl)(methyl)amino)methyl)piperidin-1-yl)-2-(2,4-dioxotetrahydropyrimidin-1(2H)-yl)isoindoline-1,3-dione], the inhibition at 0.01 µM [5] is reported as 45 to 55% and the inhibition at 0.5 µM [6] is reported as 60 to 80%.
Compound C[C@@H]1CNC(=O)c2cc3ccc(C(=O)Nc4cnn(Cc5ccc(N6CCN(CC7CCN(c8ccc9c(c8)C(=O)N(N8CCC(=O)NC8=O)C9=O)CC7)CC6)cc5)c4)nc3n21 [GT-08255, (R)—N-(1-(4-(4-((1-(2-(2,4-dioxotetrahydropyrimidin-1(2H)-yl)-1,3-dioxoisoindolin-5-yl)piperidin-4-yl)methyl)piperazin-1-yl)benzyl)-1H-pyrazol-4-yl)-9-methyl-6-oxo-6,7,8,9-tetrahydropyrido[3′,2′: 4,5]pyrrolo[1,2-a]pyrazine-2-carboxamide] has an inhibition at 0.01 µM (MV-4-11, 10 nM) of -15 to -5% and an inhibition at 0.5 µM (MV-4-11, 500 nM) of 50 to 70%.
C[C@@H]1CNC(=O)c2cc3ccc(C(=O)Nc4cnn(Cc5ccc(N6CCN(CC7CCN(c8cccc9c8C(=O)N(N8CCC(=O)NC8=O)C9=O)CC7)CC6)cc5)c4)nc3n21 [GT-08256, (R)—N-(1-(4-(4-((1-(2-(2,4-dioxotetrahydropyrimidin-1(2H)-yl)-1,3-dioxoisoindolin-4-yl)piperidin-4-yl)methyl)piperazin-1-yl)benzyl)-1H-pyrazol-4-yl)-9-methyl-6-oxo-6,7,8,9-tetrahydropyrido[3′,2′: 4,5]pyrrolo[1,2-a]pyrazine-2-carboxamide] was tested, and the inhibition at 0.01 µM (MV-4-11, 10 nM) was 20 to 30% and the inhibition at 0.5 µM (MV-4-11, 500 nM) was 80 to 100%.
